# Experimental data from publication PMC7343282, “Tissue Distribution of Several Series of Cationic Surfactants in Rainbow Trout (Oncorhynchus mykiss) Following Exposure via Water” (Environmental Science & Technology, 2020).
# Columns and labels:
# [1] = Tissue concentrations in rainbow trout after 7 d exposure via water (two mixtures); type: in vivo, Oncorhynchus mykiss; settings: rainbow trout (Oncorhynchus mykiss), in vivo
# Outline: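 Rainbow trout (98–165 g) held at 10 °C, pH 7.5, in flow-through aquaria and exposed 7 d to methanol-dissolved mixtures infused into inflow; intended water levels 2.5–50 μg L^–1. Skin rinsed with methanol; muscle, skin, liver, gills homogenized, methanol-extracted (50 °C, 60 min), isotope-labeled standards added, WCX SPE cleanup.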
# [2] = system: rainbow trout (Oncorhynchus mykiss); assay: Contribution of tissues to fish body burden; type: in vivo; settings: for Contribution of Blood to the fish's body burden / Contribution of Gills to the fish's body burden / Contribution of Liver to the fish's body burden / Contribution of Mucus to the fish's body burden / Contribution of Other tissue (all apart from blood, liver, gills and skin; muscle concentration assumed) to body burden / Contribution of Skin to the fish's body burden: fraction; for % contribution to body burden, Gills / % contribution to body burden, Mucus / % contribution to body burden, Liver / % contribution to body burden, Skin / % contribution to body burden, Muscle: mean across fish, Figure 1; for % contribution to body burden, Liver / % contribution to body burden, Skin / % contribution to body burden, Muscle: Q10, Q14 maximum estimates; for % contribution to body burden, Muscle: includes all tissues not specifically analyzed
# [3] = Table S2; cited from earlier work
# [4] = Membrane-water partition/distribution coefficient; settings: extrapolated from data of Timmer and Droge (2017)
compound,measurement,setting,value
"CCCCCCCCCCCCCN [P13, tridecylamine]",concentration at 7 d,[1]; Concentration in skin,2160 ng/g
same,concentration at 7 d,"[1]; pH 7.5, Concentration in blood",495 ng/g
same,concentration at 7 d,"[1]; pH 7.5, Concentration in gills",16000 ng/g
same,concentration at 7 d,"[1]; pH 7.5, Concentration in muscle",451 ng/g
same,concentration at 7 d,"[1]; pH 7.5, Concentration in skin",2040 ng/g
same,Contribution of Blood to the fish's body burden,[2]; Fish #1,0.013
same,Contribution of Gills to the fish's body burden,[2]; Fish #1,0.27
same,Contribution of Liver to the fish's body burden,[2]; Fish #1,0.24
same,Contribution of Mucus to the fish's body burden,[2]; Fish #1,0.14
same,"Contribution of Other tissue (all apart from blood, liver, gills and skin; muscle concentration assumed) to body burden",[2]; Fish #1,0.17
same,Contribution of Skin to the fish's body burden,[2]; Fish #1,0.17
same,Contribution of Blood to the fish's body burden,[2]; Fish #2,0.014
same,Contribution of Gills to the fish's body burden,[2]; Fish #2,0.27
same,Contribution of Liver to the fish's body burden,[2]; Fish #2,0.23
same,Contribution of Mucus to the fish's body burden,[2]; Fish #2,0.10
same,"Contribution of Other tissue (all apart from blood, liver, gills and skin; muscle concentration assumed) to body burden",[2]; Fish #2,0.17
same,Contribution of Skin to the fish's body burden,[2]; Fish #2,0.21
same,Contribution of Blood to the fish's body burden,[2]; Fish #3,0.016
same,Contribution of Liver to the fish's body burden,[2]; Fish #3,0.16
same,Contribution of Mucus to the fish's body burden,[2]; Fish #3,0.09
same,"Contribution of Other tissue (all apart from blood, liver, gills and skin; muscle concentration assumed) to body burden",[2]; Fish #3,0.24
same,Contribution of Skin to the fish's body burden,[2]; Fish #3,0.20
same,Contribution of Blood to the fish's body burden,[2]; Fish #4,0.013
same,Contribution of Gills to the fish's body burden,[2]; Fish #4,0.35
same,Contribution of Liver to the fish's body burden,[2]; Fish #4,0.15
same,Contribution of Mucus to the fish's body burden,[2]; Fish #4,0.11
same,"Contribution of Other tissue (all apart from blood, liver, gills and skin; muscle concentration assumed) to body burden",[2]; Fish #4,0.17
same,Contribution of Skin to the fish's body burden,[2]; Fish #4,0.21
same,Contribution of Blood to the fish's body burden,[2]; Fish #5,0.013
same,Contribution of Gills to the fish's body burden,[2]; Fish #5,0.28
same,Contribution of Liver to the fish's body burden,[2]; Fish #5,0.23
same,Contribution of Mucus to the fish's body burden,[2]; Fish #5,0.09
same,"Contribution of Other tissue (all apart from blood, liver, gills and skin; muscle concentration assumed) to body burden",[2]; Fish #5,0.17
same,Contribution of Skin to the fish's body burden,[2]; Fish #5,0.23
same,Contribution of Blood to the fish's body burden,[2]; Fish #6,0.013
same,Contribution of Gills to the fish's body burden,[2]; Fish #6,0.26
same,Contribution of Liver to the fish's body burden,[2]; Fish #6,0.27
same,Contribution of Mucus to the fish's body burden,[2]; Fish #6,0.09
same,"Contribution of Other tissue (all apart from blood, liver, gills and skin; muscle concentration assumed) to body burden",[2]; Fish #6,0.17
same,Contribution of Skin to the fish's body burden,[2]; Fish #6,0.20
same,Contribution of Blood to the fish's body burden,[2]; Mean,0.014
same,Contribution of Gills to the fish's body burden,[2]; Mean,0.28
same,Contribution of Liver to the fish's body burden,[2]; Mean,0.21
same,Contribution of Mucus to the fish's body burden,[2]; Mean,0.10
same,"Contribution of Other tissue (all apart from blood, liver, gills and skin; muscle concentration assumed) to body burden",[2]; Mean,0.18
same,Contribution of Skin to the fish's body burden,[2]; Mean,0.20
same,"% contribution to body burden, Gills",[2],28%
same,"% contribution to body burden, Mucus",[2],10%
same,"% contribution to body burden, Liver",[2],21%
same,"% contribution to body burden, Skin",[2],20%
same,"% contribution to body burden, Muscle",[2],18%
same,pKa,[3],10.5
same,"Log KMW,C (membrane-water partition coefficient of the charged form), extrapolated",[4],6.16
"CCCCCCCCCCCCCN(C)C [T13, N,N-dimethyltridecylamine]",Contribution of Blood to the fish's body burden,[2]; Fish #1,0.038
same,Contribution of Gills to the fish's body burden,[2]; Fish #1,0.28
same,Contribution of Liver to the fish's body burden,[2]; Fish #1,0.05
same,Contribution of Mucus to the fish's body burden,[2]; Fish #1,0.11
same,"Contribution of Other tissue (all apart from blood, liver, gills and skin; muscle concentration assumed) to body burden",[2]; Fish #1,0.36
same,Contribution of Skin to the fish's body burden,[2]; Fish #1,0.17
same,Contribution of Blood to the fish's body burden,[2]; Fish #2,0.031
same,Contribution of Gills to the fish's body burden,[2]; Fish #2,0.26
same,Contribution of Liver to the fish's body burden,[2]; Fish #2,0.09
same,Contribution of Mucus to the fish's body burden,[2]; Fish #2,0.09
same,"Contribution of Other tissue (all apart from blood, liver, gills and skin; muscle concentration assumed) to body burden",[2]; Fish #2,0.29
same,Contribution of Skin to the fish's body burden,[2]; Fish #2,0.24
same,Contribution of Blood to the fish's body burden,[2]; Fish #3,0.038
same,Contribution of Liver to the fish's body burden,[2]; Fish #3,0.11
same,Contribution of Mucus to the fish's body burden,[2]; Fish #3,0.07
same,"Contribution of Other tissue (all apart from blood, liver, gills and skin; muscle concentration assumed) to body burden",[2]; Fish #3,0.31
same,Contribution of Skin to the fish's body burden,[2]; Fish #3,0.22
same,Contribution of Blood to the fish's body burden,[2]; Fish #4,0.023
same,Contribution of Gills to the fish's body burden,[2]; Fish #4,0.22
same,Contribution of Liver to the fish's body burden,[2]; Fish #4,0.21
same,Contribution of Mucus to the fish's body burden,[2]; Fish #4,0.07
same,"Contribution of Other tissue (all apart from blood, liver, gills and skin; muscle concentration assumed) to body burden",[2]; Fish #4,0.32
same,Contribution of Skin to the fish's body burden,[2]; Fish #4,0.17
same,Contribution of Blood to the fish's body burden,[2]; Fish #5,0.025
same,Contribution of Gills to the fish's body burden,[2]; Fish #5,0.30
same,Contribution of Liver to the fish's body burden,[2]; Fish #5,0.07
same,Contribution of Mucus to the fish's body burden,[2]; Fish #5,0.09
same,"Contribution of Other tissue (all apart from blood, liver, gills and skin; muscle concentration assumed) to body burden",[2]; Fish #5,0.31
same,Contribution of Skin to the fish's body burden,[2]; Fish #5,0.21
same,Contribution of Blood to the fish's body burden,[2]; Fish #6,0.042
same,Contribution of Gills to the fish's body burden,[2]; Fish #6,0.24
same,Contribution of Liver to the fish's body burden,[2]; Fish #6,0.06
same,Contribution of Mucus to the fish's body burden,[2]; Fish #6,0.11
same,"Contribution of Other tissue (all apart from blood, liver, gills and skin; muscle concentration assumed) to body burden",[2]; Fish #6,0.29
same,Contribution of Skin to the fish's body burden,[2]; Fish #6,0.25
same,Contribution of Blood to the fish's body burden,[2]; Mean,0.033
same,Contribution of Gills to the fish's body burden,[2]; Mean,0.26
same,Contribution of Liver to the fish's body burden,[2]; Mean,0.10
same,Contribution of Mucus to the fish's body burden,[2]; Mean,0.09
same,"Contribution of Other tissue (all apart from blood, liver, gills and skin; muscle concentration assumed) to body burden",[2]; Mean,0.31
same,Contribution of Skin to the fish's body burden,[2]; Mean,0.21
same,"% contribution to body burden, Gills",[2],26%
same,"% contribution to body burden, Mucus",[2],9%
same,"% contribution to body burden, Liver",[2],10%
same,"% contribution to body burden, Skin",[2],21%
same,"% contribution to body burden, Muscle",[2],31%
same,pKa,[3],9.5
same,"Log KMW,C (membrane-water partition coefficient of the charged form), extrapolated",[4],5.88
